Assay results: ChEMBL document CHEMBL1136657, “Novel ether derivatives of mannopeptimycin glycopeptide antibiotic” (2003)
In brackets after ≈: the same amount, converted by molar mass.

Experiments:
Format in all cases: functional
Staphylococcus aureus = experiment: Minimum inhibitory concentration against Staphylococcus aureus was determined
Streptococcus = experiment: Minimum inhibitory concentration against Streptococcus species. was determined
Enterococcus sp. = experiment: Minimum inhibitory concentration against Enterococcus species. was determined

Row | Structure (SMILES) | MIC (Staphylococcus aureus) | MIC (Streptococcus) | MIC (Enterococcus sp.)
1 | CC(C)CC(=O)O[C@@H]1[C@@H](O[C@H]2[C@H](O)[C@H](O)[C@@H](Oc3ccc(C[C@H]4NC(=O)[C@H]([C@@H](C)c5ccccc5)NC(=O)CNC(=O)[C@H](CO)NC(=O)[C@@H]([C@@H](O)[C@@H]5CN=C(N)N5[C@H]5O[C@H](O)[C@@H](O)[C@H](O)[C@@H]5O)NC(=O)[C@H]([C@@H](O)[C@@H]5CN=C(N)N5)NC4=O)cc3)O[C@@H]2CO)O[C@H](CO)[C@@H](O)[C@@H]1O | 8 µg/mL (≈ 5.86 µM) | 8 µg/mL (≈ 5.86 µM) | > 128 µg/mL
2 | C[C@@H](c1ccccc1)[C@@H]1NC(=O)CNC(=O)[C@H](CO)NC(=O)[C@@H]([C@@H](O)[C@@H]2CN=C(N)N2[C@H]2O[C@H](O)[C@@H](O)[C@H](O)[C@@H]2O)NC(=O)[C@H]([C@@H](O)[C@@H]2CN=C(N)N2)NC(=O)[C@@H](Cc2ccc(O[C@H]3O[C@H](CO)[C@@H](O[C@H]4O[C@H](CO)[C@@H](O)[C@H](O)[C@@H]4O)[C@H](O)[C@@H]3O)cc2)NC1=O | > 128 µg/mL | 32 µg/mL (≈ 25 µM) | 128 µg/mL (≈ 99.9 µM)
3 | CC(C)CC(=O)O[C@H]1[C@H](O)[C@H](O)[C@@H](O[C@H]2[C@H](O)[C@H](O)[C@@H](Oc3ccc(C[C@H]4NC(=O)[C@H]([C@@H](C)c5ccccc5)NC(=O)CNC(=O)[C@H](CO)NC(=O)[C@@H]([C@@H](O)[C@@H]5CN=C(N)N5[C@H]5O[C@H](O)[C@@H](O)[C@H](O)[C@@H]5O)NC(=O)[C@H]([C@@H](O)[C@@H]5CN=C(N)N5)NC4=O)cc3)O[C@@H]2CO)O[C@@H]1CO | 4 µg/mL (≈ 2.93 µM) | 2 µg/mL (≈ 1.46 µM) | 4 µg/mL (≈ 2.93 µM)
4 | CC(C)CC(=O)O[C@@H]1[C@H](O)[C@@H](O[C@H]2[C@H](O)[C@H](O)[C@@H](Oc3ccc(C[C@H]4NC(=O)[C@H]([C@@H](C)c5ccccc5)NC(=O)CNC(=O)[C@H](CO)NC(=O)[C@@H]([C@@H](O)[C@@H]5CN=C(N)N5[C@H]5O[C@H](O)[C@@H](O)[C@H](O)[C@@H]5O)NC(=O)[C@H]([C@@H](O)[C@@H]5CN=C(N)N5)NC4=O)cc3)O[C@@H]2CO)O[C@H](CO)[C@H]1O | 8 µg/mL (≈ 5.86 µM) | 8 µg/mL (≈ 5.86 µM) | 64 µg/mL (≈ 46.9 µM)
